{"source": "paper PMC10004634", "about": "(PLOS ONE, 2023)", "key": {"BLK": {"target": "BLK (Homo sapiens, UniProt P51451)", "assay": "Z'-Lyte kinase inhibition assay", "type": "biochemical", "parameters": "purchased Thermo Fisher Scientific (Invitrogen Z'-Lyte service)", "details": "60 min preincubation", "procedure": "In all the assays, each test compound was preincubated with peptide/kinase mixture or kinase/antibody mixture for 60 min at room temperature before adding the ATP solution or AlexaFluor labeled Tracer to initiate the 60-min incubation of the reactants."}, "ITK": {"target": "T1, ITK (Homo sapiens, UniProt Q08881)", "T1 sequence (Q08881 1-620)": "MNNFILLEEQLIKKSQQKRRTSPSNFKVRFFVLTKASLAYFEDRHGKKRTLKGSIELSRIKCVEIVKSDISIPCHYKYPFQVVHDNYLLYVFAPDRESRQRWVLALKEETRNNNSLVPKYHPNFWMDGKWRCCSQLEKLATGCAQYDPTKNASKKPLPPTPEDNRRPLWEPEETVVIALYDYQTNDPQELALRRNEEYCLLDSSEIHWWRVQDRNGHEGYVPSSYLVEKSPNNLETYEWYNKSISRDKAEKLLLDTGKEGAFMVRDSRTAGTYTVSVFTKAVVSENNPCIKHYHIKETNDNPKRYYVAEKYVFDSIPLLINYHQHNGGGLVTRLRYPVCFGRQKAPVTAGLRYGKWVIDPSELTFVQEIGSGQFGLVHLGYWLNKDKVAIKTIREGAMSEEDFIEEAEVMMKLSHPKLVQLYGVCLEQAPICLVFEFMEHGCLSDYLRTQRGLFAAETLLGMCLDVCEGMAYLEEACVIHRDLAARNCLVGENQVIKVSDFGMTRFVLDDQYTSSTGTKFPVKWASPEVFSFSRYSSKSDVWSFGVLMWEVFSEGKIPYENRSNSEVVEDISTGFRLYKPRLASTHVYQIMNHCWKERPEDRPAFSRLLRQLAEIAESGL", "assay": "biochemical", "parameters": "KINOMEscan scanMAX competition binding, DNA-tagged kinases, qPCR read-out, percent control at 300 nM"}, "CDKL3": {"target": "CDKL3 (Homo sapiens, UniProt Q8IVW4)", "sequence (Q8IVW4 whole entry)": "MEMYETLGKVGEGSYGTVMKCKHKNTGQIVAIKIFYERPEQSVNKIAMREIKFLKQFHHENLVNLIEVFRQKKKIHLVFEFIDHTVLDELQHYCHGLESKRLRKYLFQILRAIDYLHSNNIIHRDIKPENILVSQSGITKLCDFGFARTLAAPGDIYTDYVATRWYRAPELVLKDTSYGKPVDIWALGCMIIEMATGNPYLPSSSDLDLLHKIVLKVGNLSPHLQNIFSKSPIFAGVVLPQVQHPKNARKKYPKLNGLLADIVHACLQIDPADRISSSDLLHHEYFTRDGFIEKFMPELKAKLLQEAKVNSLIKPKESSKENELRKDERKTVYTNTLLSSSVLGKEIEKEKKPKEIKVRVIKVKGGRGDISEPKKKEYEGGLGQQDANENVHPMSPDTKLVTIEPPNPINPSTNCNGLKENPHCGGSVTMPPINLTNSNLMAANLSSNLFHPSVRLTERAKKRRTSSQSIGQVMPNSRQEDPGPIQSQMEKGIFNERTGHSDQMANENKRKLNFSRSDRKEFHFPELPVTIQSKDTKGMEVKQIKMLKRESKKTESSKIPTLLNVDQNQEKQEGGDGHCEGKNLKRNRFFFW", "assay": "biochemical", "parameters": "KINOMEscan scanMAX competition binding, DNA-tagged kinases, qPCR read-out, percent control at 300 nM"}, "DMPK2": {"target": "T2, DMPK2 (Homo sapiens, UniProt Q6DT37)", "T2 construct": "gene CDC42BPG", "T2 sequence (Q6DT37 whole entry)": "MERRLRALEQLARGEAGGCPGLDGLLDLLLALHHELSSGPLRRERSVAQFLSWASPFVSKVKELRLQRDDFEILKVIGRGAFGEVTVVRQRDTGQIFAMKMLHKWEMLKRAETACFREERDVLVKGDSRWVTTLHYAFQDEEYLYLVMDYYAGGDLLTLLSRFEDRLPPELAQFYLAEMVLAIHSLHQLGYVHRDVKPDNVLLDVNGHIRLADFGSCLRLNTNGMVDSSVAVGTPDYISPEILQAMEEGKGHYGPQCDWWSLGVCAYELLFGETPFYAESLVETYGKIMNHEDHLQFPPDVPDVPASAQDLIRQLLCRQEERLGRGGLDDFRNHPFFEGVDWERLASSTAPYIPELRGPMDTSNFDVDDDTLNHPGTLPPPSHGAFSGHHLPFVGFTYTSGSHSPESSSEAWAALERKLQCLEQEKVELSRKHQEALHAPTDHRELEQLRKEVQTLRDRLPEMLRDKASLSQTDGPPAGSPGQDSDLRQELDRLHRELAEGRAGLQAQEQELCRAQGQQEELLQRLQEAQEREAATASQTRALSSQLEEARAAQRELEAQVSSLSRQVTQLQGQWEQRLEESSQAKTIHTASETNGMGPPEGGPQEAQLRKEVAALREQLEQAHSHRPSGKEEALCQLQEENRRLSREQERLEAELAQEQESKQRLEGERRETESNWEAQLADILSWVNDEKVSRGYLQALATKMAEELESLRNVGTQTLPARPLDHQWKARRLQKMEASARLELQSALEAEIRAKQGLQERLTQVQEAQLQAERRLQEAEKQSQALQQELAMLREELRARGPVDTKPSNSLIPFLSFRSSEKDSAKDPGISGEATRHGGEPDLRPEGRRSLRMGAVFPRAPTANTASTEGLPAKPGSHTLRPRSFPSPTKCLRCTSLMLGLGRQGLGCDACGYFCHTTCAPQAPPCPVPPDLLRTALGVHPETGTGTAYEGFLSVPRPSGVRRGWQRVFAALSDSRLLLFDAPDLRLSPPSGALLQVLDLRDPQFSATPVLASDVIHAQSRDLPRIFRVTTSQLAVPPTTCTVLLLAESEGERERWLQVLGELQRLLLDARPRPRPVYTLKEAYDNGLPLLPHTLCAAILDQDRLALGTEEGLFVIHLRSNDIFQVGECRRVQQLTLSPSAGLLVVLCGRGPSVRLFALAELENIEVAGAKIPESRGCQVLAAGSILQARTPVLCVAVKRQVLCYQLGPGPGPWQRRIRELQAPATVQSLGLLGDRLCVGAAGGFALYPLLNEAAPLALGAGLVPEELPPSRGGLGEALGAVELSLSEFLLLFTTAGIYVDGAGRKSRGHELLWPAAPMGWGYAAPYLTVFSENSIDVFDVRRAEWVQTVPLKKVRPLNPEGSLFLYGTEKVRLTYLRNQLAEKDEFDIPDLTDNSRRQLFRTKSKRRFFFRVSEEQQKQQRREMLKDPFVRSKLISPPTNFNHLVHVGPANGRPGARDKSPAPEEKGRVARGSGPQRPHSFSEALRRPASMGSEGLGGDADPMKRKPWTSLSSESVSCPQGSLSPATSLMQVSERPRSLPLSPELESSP", "assay": "biochemical", "parameters": "KINOMEscan scanMAX competition binding, DNA-tagged kinases, qPCR read-out, percent control at 300 nM"}, "PAK7": {"target": "T3, PAK7 (Homo sapiens, UniProt Q9P286)", "T3 construct": "gene PAK5", "T3 sequence (Q9P286 whole entry)": "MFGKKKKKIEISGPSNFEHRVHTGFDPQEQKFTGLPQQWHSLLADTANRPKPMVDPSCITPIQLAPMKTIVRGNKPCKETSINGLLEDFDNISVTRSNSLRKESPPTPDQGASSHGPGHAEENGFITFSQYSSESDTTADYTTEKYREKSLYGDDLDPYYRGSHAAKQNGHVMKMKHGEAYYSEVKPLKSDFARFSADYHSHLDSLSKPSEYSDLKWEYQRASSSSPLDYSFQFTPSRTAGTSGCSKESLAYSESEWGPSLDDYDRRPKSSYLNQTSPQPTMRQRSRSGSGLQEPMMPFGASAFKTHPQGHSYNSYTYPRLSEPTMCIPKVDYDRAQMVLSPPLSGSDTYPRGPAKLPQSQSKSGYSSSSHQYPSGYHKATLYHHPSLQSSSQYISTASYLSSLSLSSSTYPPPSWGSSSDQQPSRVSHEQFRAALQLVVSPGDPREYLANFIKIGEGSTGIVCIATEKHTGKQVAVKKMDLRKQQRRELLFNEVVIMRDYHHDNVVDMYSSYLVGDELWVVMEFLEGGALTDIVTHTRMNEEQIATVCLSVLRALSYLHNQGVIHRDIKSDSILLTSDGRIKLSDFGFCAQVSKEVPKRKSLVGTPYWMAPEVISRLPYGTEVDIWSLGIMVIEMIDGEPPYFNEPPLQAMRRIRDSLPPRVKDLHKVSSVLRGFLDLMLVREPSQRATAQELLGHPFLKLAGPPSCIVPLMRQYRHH", "assay": "biochemical", "parameters": "KINOMEscan scanMAX competition binding, DNA-tagged kinases, qPCR read-out, percent control at 300 nM"}, "SBK1": {"target": "SBK1 (Homo sapiens, UniProt Q52WX2)", "assay": "biochemical", "parameters": "KINOMEscan scanMAX competition binding, DNA-tagged kinases, qPCR read-out, percent control at 300 nM"}, "LIMK1": {"target": "LIMK1 (Homo sapiens, UniProt P53667)", "assay": "biochemical", "parameters": "KINOMEscan scanMAX competition binding, DNA-tagged kinases, qPCR read-out, percent control at 300 nM"}, "MST3": {"target": "T4, MST3 (Homo sapiens, UniProt Q9Y6E0)", "T4 construct": "gene STK24", "T4 sequence (Q9Y6E0 whole entry)": "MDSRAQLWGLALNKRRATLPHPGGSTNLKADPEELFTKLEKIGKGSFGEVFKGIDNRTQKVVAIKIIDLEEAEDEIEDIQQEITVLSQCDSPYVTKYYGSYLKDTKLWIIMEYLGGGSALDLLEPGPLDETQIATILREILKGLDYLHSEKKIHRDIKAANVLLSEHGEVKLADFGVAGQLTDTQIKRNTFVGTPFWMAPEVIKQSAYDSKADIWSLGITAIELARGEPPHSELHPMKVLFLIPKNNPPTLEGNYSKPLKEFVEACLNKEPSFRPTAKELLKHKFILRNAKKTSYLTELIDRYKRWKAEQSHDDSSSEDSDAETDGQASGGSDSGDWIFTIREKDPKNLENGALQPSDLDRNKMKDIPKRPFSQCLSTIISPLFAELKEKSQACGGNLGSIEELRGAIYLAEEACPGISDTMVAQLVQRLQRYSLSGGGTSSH", "assay": "biochemical", "parameters": "KINOMEscan scanMAX competition binding, DNA-tagged kinases, qPCR read-out, percent control at 300 nM"}, "CDK11": {"target": "T5, CDK11 (Homo sapiens, UniProt Q9BWU1)", "T5 construct": "gene CDK19", "T5 sequence (Q9BWU1 whole entry)": "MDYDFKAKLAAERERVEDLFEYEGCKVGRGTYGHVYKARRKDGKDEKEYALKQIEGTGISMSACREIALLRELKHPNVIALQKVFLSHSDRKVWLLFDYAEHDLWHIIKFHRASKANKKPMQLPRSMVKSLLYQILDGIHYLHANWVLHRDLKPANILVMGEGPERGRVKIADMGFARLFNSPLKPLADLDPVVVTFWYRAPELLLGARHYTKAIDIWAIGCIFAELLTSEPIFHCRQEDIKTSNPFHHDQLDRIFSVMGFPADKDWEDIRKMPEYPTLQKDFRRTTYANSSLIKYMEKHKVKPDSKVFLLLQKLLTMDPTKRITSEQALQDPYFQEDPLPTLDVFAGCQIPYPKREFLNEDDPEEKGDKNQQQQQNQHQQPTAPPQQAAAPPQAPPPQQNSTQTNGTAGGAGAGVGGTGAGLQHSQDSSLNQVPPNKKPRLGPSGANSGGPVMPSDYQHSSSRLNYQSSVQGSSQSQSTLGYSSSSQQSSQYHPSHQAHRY", "assay": "biochemical", "parameters": "KINOMEscan scanMAX competition binding, DNA-tagged kinases, qPCR read-out, percent control at 300 nM"}, "MARK2": {"target": "MARK2 (Homo sapiens, UniProt Q7KZI7)", "assay": "biochemical", "parameters": "KINOMEscan scanMAX competition binding, DNA-tagged kinases, qPCR read-out, percent control at 300 nM"}, "LTK": {"target": "LTK (Homo sapiens, UniProt P29376)", "sequence (P29376 whole entry)": "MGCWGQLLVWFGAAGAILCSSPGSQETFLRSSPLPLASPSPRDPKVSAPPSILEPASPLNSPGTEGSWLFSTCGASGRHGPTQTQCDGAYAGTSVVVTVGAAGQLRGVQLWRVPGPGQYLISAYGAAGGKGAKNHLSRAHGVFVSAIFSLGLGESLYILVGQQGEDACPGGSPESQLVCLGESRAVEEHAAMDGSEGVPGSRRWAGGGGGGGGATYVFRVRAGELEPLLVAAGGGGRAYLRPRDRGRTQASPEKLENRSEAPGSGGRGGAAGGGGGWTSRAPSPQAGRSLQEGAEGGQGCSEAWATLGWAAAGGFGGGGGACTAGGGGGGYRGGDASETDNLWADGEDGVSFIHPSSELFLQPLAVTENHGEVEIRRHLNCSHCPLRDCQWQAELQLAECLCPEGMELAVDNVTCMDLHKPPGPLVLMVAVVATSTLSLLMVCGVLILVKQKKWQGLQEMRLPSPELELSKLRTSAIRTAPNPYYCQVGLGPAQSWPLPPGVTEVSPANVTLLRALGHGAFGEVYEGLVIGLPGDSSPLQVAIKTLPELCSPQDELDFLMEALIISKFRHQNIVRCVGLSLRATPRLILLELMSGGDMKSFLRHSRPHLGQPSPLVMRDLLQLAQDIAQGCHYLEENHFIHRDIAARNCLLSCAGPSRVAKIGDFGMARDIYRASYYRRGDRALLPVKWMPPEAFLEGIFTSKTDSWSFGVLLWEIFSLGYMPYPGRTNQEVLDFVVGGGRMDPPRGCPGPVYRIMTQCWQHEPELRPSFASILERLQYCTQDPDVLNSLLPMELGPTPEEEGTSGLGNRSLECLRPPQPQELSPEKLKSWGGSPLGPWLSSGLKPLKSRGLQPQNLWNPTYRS", "assay": "biochemical", "parameters": "KINOMEscan scanMAX competition binding, DNA-tagged kinases, qPCR read-out, percent control at 300 nM"}, "KIT": {"target": "KIT (Homo sapiens, UniProt P10721)", "assay": "biochemical", "parameters": "KINOMEscan scanMAX competition binding, DNA-tagged kinases, qPCR read-out, percent control at 300 nM"}, "MLCK": {"target": "T6, MLCK (Homo sapiens, UniProt Q32MK0)", "T6 construct": "gene MYLK3", "T6 sequence (Q32MK0 1-819)": "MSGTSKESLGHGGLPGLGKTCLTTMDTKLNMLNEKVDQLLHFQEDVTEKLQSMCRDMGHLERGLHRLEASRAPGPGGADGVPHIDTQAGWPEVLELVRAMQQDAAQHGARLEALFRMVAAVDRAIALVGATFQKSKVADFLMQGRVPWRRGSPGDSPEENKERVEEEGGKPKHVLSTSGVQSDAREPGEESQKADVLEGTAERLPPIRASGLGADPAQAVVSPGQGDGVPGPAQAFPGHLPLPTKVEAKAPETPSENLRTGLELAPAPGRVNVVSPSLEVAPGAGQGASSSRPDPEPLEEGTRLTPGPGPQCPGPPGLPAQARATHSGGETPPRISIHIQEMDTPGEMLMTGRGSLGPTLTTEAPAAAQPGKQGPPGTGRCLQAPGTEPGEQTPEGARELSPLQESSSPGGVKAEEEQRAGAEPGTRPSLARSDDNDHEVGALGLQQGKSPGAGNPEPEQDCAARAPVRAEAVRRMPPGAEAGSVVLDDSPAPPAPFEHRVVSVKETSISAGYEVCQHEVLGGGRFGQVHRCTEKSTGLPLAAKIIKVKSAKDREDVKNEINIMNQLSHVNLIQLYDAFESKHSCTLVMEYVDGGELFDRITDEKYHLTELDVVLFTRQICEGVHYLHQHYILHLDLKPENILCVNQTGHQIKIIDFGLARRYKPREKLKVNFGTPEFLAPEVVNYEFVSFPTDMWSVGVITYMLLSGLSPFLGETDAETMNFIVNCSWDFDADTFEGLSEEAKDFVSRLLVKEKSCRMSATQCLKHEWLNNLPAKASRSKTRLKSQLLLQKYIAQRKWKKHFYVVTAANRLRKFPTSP", "assay": "biochemical", "parameters": "KINOMEscan scanMAX competition binding, DNA-tagged kinases, qPCR read-out, percent control at 300 nM"}, "[1]": {"details": "read-out: Percent control / Acalabrutinib"}, "[2]": {"details": "read-out: Percent control / Ibrutinib"}, "[3]": {"details": "read-out: Percent control / Tirabrutinib"}, "[4]": {"details": "read-out: Percent control / Zanubrutinib"}}, "note": "Read-outs that look alike come from different tables or passages of the source.", "data": [{"molecule": "CC#CC(=O)N1CCC[C@H]1c1nc(-c2ccc(C(=O)Nc3ccccn3)cc2)c2c(N)nccn12", "note": "[Acalabrutinib]", "values": [{"measurement": "IC50", "setting": "BLK", "result": 2270, "unit": "nM"}, {"measurement": "remaining binding at 0.3 µM", "setting": "ITK; [1]", "result": 97, "unit": "%"}, {"measurement": "remaining binding at 0.3 µM", "setting": "CDKL3; [1]", "result": 78, "unit": "%"}, {"measurement": "remaining binding at 0.3 µM", "setting": "DMPK2; [1]", "result": 91, "unit": "%"}, {"measurement": "remaining binding at 0.3 µM", "setting": "PAK7; [1]", "result": 76, "unit": "%"}, {"measurement": "remaining binding at 0.3 µM", "setting": "SBK1; [1]", "result": 91, "unit": "%"}, {"measurement": "remaining binding at 0.3 µM", "setting": "LIMK1; [1]", "result": 47, "unit": "%"}, {"measurement": "remaining binding at 0.3 µM", "setting": "MST3; [1]", "result": 94, "unit": "%"}, {"measurement": "remaining binding at 0.3 µM", "setting": "CDK11; [1]", "result": 74, "unit": "%"}, {"measurement": "remaining binding at 0.3 µM", "setting": "MARK2; [1]", "result": 91, "unit": "%"}, {"measurement": "remaining binding at 0.3 µM", "setting": "LTK; [1]", "result": 100, "unit": "%"}, {"measurement": "remaining binding at 0.3 µM", "setting": "KIT; [1]", "result": 91, "unit": "%"}, {"measurement": "remaining binding at 0.3 µM", "setting": "MLCK; [1]", "result": 94, "unit": "%"}]}, {"molecule": "C=CC(=O)N1CCC[C@@H](n2nc(-c3ccc(Oc4ccccc4)cc3)c3c(N)ncnc32)C1", "note": "[Ibrutinib]", "values": [{"measurement": "remaining binding at 0.3 µM", "setting": "ITK; [2]", "result": 27, "unit": "%"}, {"measurement": "remaining binding at 0.3 µM", "setting": "CDKL3; [2]", "result": 98, "unit": "%"}, {"measurement": "remaining binding at 0.3 µM", "setting": "DMPK2; [2]", "result": 75, "unit": "%"}, {"measurement": "remaining binding at 0.3 µM", "setting": "PAK7; [2]", "result": 94, "unit": "%"}, {"measurement": "remaining binding at 0.3 µM", "setting": "SBK1; [2]", "result": 47, "unit": "%"}, {"measurement": "remaining binding at 0.3 µM", "setting": "LIMK1; [2]", "result": 57, "unit": "%"}, {"measurement": "remaining binding at 0.3 µM", "setting": "MST3; [2]", "result": 90, "unit": "%"}, {"measurement": "remaining binding at 0.3 µM", "setting": "CDK11; [2]", "result": 81, "unit": "%"}, {"measurement": "remaining binding at 0.3 µM", "setting": "MARK2; [2]", "result": 87, "unit": "%"}, {"measurement": "remaining binding at 0.3 µM", "setting": "LTK; [2]", "result": 78, "unit": "%"}, {"measurement": "remaining binding at 0.3 µM", "setting": "MLCK; [2]", "result": 79, "unit": "%"}]}, {"molecule": "CC#CC(=O)N1CC[C@@H](n2c(=O)n(-c3ccc(Oc4ccccc4)cc3)c3c(N)ncnc32)C1", "note": "[Tirabrutinib]", "values": [{"measurement": "IC50", "setting": "BLK", "result": 1280, "unit": "nM"}, {"measurement": "remaining binding at 0.3 µM", "setting": "ITK; [3]", "result": 99, "unit": "%"}, {"measurement": "remaining binding at 0.3 µM", "setting": "DMPK2; [3]", "result": 87, "unit": "%"}, {"measurement": "remaining binding at 0.3 µM", "setting": "SBK1; [3]", "result": 53, "unit": "%"}, {"measurement": "remaining binding at 0.3 µM", "setting": "CDK11; [3]", "result": 93, "unit": "%"}, {"measurement": "remaining binding at 0.3 µM", "setting": "LTK; [3]", "result": 100, "unit": "%"}, {"measurement": "remaining binding at 0.3 µM", "setting": "KIT; [3]", "result": 91, "unit": "%"}]}, {"molecule": "C=CC(=O)N1CCC([C@@H]2CCNc3c(C(N)=O)c(-c4ccc(Oc5ccccc5)cc4)nn32)CC1", "note": "[Zanubrutinib]", "values": [{"measurement": "remaining binding at 0.3 µM", "setting": "ITK; [4]", "result": 97, "unit": "%"}, {"measurement": "remaining binding at 0.3 µM", "setting": "CDKL3; [4]", "result": 92, "unit": "%"}, {"measurement": "remaining binding at 0.3 µM", "setting": "PAK7; [4]", "result": 87, "unit": "%"}, {"measurement": "remaining binding at 0.3 µM", "setting": "SBK1; [4]", "result": 94, "unit": "%"}, {"measurement": "remaining binding at 0.3 µM", "setting": "LIMK1; [4]", "result": 100, "unit": "%"}, {"measurement": "remaining binding at 0.3 µM", "setting": "MST3; [4]", "result": 91, "unit": "%"}, {"measurement": "remaining binding at 0.3 µM", "setting": "CDK11; [4]", "result": 83, "unit": "%"}, {"measurement": "remaining binding at 0.3 µM", "setting": "MARK2; [4]", "result": 90, "unit": "%"}, {"measurement": "remaining binding at 0.3 µM", "setting": "LTK; [4]", "result": 92, "unit": "%"}, {"measurement": "remaining binding at 0.3 µM", "setting": "KIT; [4]", "result": 100, "unit": "%"}, {"measurement": "remaining binding at 0.3 µM", "setting": "MLCK; [4]", "result": 84, "unit": "%"}]}]}
